Results on 1 compound are retold here after BindingDB's records for doi:10.1111/cbdd.12330 (Institute of Experimental Botany Ascr and Palacky University, 2014).

Assay in all cases: Kinase Selectivity
Assay [1] deals with Cyclin-dependent kinase 1 (Homo sapiens, UniProt P06493). On the procedure: (§1) Cyclin-dependent kinase selectivity was evaluated using CDK1-cyclin B, CDK2-cyclin E, CDK4-cyclin D1, CDK7-cyclin H, and CDK9-cyclin T1.
The target of assay [2] is Cyclin-dependent kinase 9 (Homo sapiens, UniProt P50750). As to the method: as §1
The target of assay [3] is Cyclin-dependent kinase 4 (Homo sapiens, UniProt P11802). On the procedure: as §1
Assay [4] concerns the target Cyclin-dependent kinase 7 (Homo sapiens, UniProt P50613). On the procedure:
as §1

Assay [5] has as its target Cyclin-dependent kinase 2 (Homo sapiens, UniProt P24941). As to the method: as §1

The structures appear in SMILES notation.

Chain of Cyclin-dependent kinase 9 (P50750 whole entry): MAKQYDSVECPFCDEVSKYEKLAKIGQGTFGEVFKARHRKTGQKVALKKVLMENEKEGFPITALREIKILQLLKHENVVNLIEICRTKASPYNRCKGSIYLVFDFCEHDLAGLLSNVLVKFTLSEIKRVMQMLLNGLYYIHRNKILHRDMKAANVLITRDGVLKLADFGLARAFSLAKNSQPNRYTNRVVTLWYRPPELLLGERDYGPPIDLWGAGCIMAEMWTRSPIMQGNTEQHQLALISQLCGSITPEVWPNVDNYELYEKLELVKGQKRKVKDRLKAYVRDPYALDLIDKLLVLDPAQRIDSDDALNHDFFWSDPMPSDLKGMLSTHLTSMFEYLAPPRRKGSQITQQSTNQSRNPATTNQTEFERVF
Chain of Cyclin-dependent kinase 1 (P06493 whole entry): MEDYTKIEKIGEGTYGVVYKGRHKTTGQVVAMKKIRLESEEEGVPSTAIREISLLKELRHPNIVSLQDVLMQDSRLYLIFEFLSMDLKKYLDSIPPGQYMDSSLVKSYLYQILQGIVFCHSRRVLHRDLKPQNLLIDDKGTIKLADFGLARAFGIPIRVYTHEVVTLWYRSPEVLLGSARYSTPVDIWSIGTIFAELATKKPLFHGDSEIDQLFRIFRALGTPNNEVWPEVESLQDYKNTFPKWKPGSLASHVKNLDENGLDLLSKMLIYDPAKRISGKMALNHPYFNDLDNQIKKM
Chain of Cyclin-dependent kinase 7 (P50613 whole entry): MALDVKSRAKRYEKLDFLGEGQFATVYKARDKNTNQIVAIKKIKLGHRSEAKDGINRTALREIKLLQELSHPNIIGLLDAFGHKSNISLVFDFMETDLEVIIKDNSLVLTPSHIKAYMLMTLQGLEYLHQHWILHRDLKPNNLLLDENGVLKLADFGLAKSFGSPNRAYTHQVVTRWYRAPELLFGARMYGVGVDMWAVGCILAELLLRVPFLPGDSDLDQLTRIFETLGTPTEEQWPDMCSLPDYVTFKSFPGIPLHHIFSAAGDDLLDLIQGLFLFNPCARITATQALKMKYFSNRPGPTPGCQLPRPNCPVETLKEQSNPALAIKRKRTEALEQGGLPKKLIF
Chain of Cyclin-dependent kinase 4 (P11802 whole entry): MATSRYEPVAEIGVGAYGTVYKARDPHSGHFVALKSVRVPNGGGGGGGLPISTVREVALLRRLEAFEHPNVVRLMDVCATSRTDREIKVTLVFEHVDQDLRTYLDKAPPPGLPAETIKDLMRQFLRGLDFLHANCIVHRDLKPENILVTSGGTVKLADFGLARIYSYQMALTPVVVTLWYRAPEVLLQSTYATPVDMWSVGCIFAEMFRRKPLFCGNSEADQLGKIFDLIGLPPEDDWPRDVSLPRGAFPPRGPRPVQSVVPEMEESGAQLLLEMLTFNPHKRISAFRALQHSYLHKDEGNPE

On to `Nc1n[nH]c(N)c1/N=N/c1ccncc1` [AAP1742], for which the IC50 (in general, the point on the concentration scale where inhibition reaches its midpoint) in assay [1] amounted to 1330 nM; in assay [2], 280 nM; in assay [3], 454 nM; in assay [4], 14.9 µM; in assay [5], 549 nM.
